Test [1] deals with T1, Bromodomain-containing protein 1 (Homo sapiens, UniProt O95696).
T1 sequence (O95696 whole entry): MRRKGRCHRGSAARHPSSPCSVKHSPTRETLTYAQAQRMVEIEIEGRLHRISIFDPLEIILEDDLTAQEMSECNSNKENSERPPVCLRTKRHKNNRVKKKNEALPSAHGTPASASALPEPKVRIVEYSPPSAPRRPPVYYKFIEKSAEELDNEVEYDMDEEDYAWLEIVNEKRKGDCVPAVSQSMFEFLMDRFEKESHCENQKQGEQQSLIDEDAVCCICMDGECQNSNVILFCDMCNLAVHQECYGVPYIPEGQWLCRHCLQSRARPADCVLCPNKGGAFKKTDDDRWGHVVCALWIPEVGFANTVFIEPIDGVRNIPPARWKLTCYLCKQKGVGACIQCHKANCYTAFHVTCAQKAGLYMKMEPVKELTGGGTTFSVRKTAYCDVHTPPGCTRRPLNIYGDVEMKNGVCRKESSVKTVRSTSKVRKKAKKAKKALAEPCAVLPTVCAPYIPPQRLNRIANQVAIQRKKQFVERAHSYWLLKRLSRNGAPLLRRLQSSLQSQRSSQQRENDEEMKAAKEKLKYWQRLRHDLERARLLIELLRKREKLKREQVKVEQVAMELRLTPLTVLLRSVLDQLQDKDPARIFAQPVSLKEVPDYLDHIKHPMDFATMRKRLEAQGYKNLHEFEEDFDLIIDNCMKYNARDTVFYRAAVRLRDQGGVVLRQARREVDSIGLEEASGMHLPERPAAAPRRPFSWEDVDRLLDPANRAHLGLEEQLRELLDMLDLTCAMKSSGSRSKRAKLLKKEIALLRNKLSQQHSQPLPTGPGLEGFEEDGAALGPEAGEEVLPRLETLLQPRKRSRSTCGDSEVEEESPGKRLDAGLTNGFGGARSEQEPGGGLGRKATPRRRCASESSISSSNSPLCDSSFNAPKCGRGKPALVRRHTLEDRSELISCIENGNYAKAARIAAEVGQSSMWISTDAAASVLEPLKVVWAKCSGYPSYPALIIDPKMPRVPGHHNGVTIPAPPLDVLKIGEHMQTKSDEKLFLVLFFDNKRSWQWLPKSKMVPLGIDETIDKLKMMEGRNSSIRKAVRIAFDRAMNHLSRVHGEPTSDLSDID
Nature of the test: Inhibition of BRPF2 BRD1 (unknown origin) by Alpha Screen assay.

Test [2] has as its target T2, Peregrin (Homo sapiens, UniProt P55201).
T2 sequence (P55201 whole entry): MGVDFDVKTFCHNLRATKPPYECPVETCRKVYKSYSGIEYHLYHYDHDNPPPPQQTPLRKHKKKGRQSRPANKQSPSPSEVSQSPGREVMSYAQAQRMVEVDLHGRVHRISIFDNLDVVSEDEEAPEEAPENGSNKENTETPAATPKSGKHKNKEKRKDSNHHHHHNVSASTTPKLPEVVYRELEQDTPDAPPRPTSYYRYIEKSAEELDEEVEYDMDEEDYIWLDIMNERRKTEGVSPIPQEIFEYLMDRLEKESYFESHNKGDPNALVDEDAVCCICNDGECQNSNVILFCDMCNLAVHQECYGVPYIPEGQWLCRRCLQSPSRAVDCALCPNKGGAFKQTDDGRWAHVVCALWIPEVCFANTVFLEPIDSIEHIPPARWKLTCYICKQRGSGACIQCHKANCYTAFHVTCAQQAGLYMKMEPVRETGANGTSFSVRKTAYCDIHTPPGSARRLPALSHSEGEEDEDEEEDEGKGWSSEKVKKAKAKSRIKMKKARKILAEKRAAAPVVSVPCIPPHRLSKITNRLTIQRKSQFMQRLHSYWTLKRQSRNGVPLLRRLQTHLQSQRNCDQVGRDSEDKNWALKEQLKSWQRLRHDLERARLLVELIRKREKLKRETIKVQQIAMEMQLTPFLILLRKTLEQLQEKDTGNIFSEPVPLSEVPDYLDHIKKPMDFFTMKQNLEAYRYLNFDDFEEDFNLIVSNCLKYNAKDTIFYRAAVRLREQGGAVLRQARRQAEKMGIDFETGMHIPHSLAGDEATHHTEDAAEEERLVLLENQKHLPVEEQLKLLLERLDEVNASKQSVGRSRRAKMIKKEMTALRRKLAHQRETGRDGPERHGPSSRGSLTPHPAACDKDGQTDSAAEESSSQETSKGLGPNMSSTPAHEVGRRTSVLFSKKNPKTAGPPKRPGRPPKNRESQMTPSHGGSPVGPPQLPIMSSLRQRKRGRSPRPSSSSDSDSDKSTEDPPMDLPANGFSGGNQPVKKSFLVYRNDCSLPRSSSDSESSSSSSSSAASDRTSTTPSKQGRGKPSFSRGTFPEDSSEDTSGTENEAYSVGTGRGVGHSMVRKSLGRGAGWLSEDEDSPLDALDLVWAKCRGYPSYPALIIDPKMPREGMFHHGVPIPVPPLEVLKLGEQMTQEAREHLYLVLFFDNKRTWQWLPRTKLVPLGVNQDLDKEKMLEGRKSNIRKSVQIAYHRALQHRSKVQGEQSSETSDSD
Nature of the test: Inhibition of BRPF1B (unknown origin) by Alpha Screen assay.

Test [3] concerns the target T3, Transcription intermediary factor 1-alpha (Homo sapiens, UniProt O15164).
T3 sequence (O15164 whole entry): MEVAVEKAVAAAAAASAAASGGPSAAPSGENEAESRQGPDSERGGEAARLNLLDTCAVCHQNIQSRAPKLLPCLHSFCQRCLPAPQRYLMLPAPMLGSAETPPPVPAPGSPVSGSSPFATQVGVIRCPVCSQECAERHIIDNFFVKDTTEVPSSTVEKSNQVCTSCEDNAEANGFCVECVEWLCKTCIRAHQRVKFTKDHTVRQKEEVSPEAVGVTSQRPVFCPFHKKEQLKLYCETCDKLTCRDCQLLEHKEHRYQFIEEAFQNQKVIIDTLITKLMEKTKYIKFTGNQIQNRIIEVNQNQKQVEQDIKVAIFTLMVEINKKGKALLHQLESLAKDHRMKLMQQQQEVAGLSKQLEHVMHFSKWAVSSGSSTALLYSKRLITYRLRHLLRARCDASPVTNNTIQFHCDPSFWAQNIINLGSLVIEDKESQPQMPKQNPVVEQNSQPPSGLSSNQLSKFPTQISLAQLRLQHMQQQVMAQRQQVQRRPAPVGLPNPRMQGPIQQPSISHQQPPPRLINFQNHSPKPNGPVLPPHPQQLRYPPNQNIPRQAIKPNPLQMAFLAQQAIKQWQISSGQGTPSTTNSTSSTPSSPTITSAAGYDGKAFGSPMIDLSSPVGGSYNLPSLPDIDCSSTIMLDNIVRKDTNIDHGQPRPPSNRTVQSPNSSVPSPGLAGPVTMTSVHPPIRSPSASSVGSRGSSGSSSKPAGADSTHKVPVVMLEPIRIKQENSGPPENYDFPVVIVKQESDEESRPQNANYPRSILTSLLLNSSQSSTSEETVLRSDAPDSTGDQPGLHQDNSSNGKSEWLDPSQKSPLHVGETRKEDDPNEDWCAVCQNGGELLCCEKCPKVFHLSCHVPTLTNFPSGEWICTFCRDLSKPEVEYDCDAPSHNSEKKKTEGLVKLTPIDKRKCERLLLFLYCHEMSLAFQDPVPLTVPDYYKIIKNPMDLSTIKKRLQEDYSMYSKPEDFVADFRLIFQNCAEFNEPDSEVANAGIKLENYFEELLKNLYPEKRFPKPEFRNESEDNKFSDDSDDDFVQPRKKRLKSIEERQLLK
Nature of the test: Inhibition of N-terminal His6-SUMO-1-tagged recombinant human TRIM24 bromodomain expressed in Escherichia coli BL21(DE3)-R3-pRARE2 cells by Alpha Screen assay.

Molecules are shown by their SMILES.

`Cn1c(=O)n(C)c2cc(NS(=O)(=O)c3ccc4c(c3)CCCC4)ccc21`: the concentration for half-maximal inhibition (IC50) in test [1] was determined as 2.05 µM; in test [2], 0.33 µM; in test [3], 6.17 µM.
For `Cn1c(=O)n(C)c2cc(NS(=O)(=O)c3ccc4c(c3)CCC(C)(C)O4)ccc21`, the concentration for half-maximal inhibition (IC50) in test [1] came out at 2.46 µM; in test [2], 0.31 µM; in test [3], 3.69 µM.
With `COc1cccc(S(=O)(=O)Nc2cc3c(cc2Oc2ccccc2)n(C)c(=O)n3C)c1`, the IC50 is 1.99 µM in test [1], 0.43 µM in test [2] and 2.38 µM in test [3].
The like results for `Cc1ccc(S(=O)(=O)Nc2cc3c(cc2Oc2ccccc2)n(C)c(=O)n3C)cc1` were, in that order, 2.92 µM, 0.51 µM and 1.27 µM.
The like results for `CC(C)c1ccc(S(=O)(=O)Nc2ccc3c(c2)n(C)c(=O)n3C)cc1` were, in that order, 4.3 µM, 0.42 µM and 3.45 µM.
Take `Cn1c(=O)n(C)c2cc(Oc3ccccc3)c(NS(=O)(=O)c3ccc4c(c3)CCCC4)cc21`: the IC50 is 2.67 µM in test [1], 2.68 µM in test [2] and above 10 µM in test [3].
`Cn1c(=O)n(C)c2cc(NS(=O)(=O)c3ccc4c(c3)CCC4)ccc21`: the IC50 in test [1] is 1.71 µM; in test [2], 0.29 µM; in test [3], above 10 µM.
On to `COc1ccc(Oc2cc3c(cc2NS(=O)(=O)c2ccc(C)cc2)n(C)c(=O)n3C)cc1`, for which the values for the half-maximal inhibitory concentration (IC50) in test [1], in test [2] and in test [3] were above 10 µM, 2.24 µM and 2.7 µM, respectively.
The like results for `COc1ccc(Oc2cc3c(cc2NS(=O)(=O)c2ccc(OC)cc2)n(C)c(=O)n3C)cc1` were, in that order, 3.58 µM, 0.66 µM and 0.77 µM.
Consider `Cc1ccc(S(=O)(=O)Nc2cc3c(cc2Oc2ccccc2)n(C)c(=O)n3C)cc1F`, for which the concentration for half-maximal inhibition (IC50) in test [1] turned out to be 3.69 µM; in test [2], 1.05 µM; in test [3], 2.7 µM.
Take `CCCOc1ccc(S(=O)(=O)Nc2cc3c(cc2Oc2ccc(OC)cc2)n(C)c(=O)n3C)cc1`: the IC50 in test [1] is above 10 µM; in test [2], 6.72 µM; in test [3], 8.4 µM.
The like results for `Cc1ccc(S(=O)(=O)Nc2cc3c(cc2Oc2ccccc2)n(C)c(=O)n3C)cc1C` were, in that order, 5.16 µM, 3.1 µM and 4.77 µM.
The like results for `COc1ccc(Oc2cc3c(cc2NS(=O)(=O)c2ccccc2)n(C)c(=O)n3C)cc1` were, in that order, 2.77 µM, 0.66 µM and 0.73 µM.
For the compound `COc1cc2c(cc1NS(=O)(=O)c1ccc(Br)cc1C)n(C)c(=O)n2C`, 1.2 µM corresponded to half-maximal inhibition in test [1] (IC50).
With `Cc1ccccc1S(=O)(=O)Nc1cc2c(cc1Oc1ccccc1)n(C)c(=O)n2C`, the IC50 is 1.7 µM in test [1], 0.43 µM in test [2] and 2.62 µM in test [3].
`COc1ccc(S(=O)(=O)Nc2cc3c(cc2Oc2ccccc2)n(C)c(=O)n3C)cc1`: the IC50 in test [1] was 1.33 µM; in test [2], 0.34 µM; in test [3], 0.74 µM.
With `COC1(C)Oc2cc(S(=O)(=O)Nc3ccc4c(c3)n(C)c(=O)n4C)ccc2O[C@]1(C)OC` (stereo not given in full), the 50% inhibitory concentration (IC50) is above 10 µM in test [1], 1.4 µM in test [2] and above 10 µM in test [3].
As to `Cn1c(=O)n(C)c2cc(Oc3ccccc3)c(NS(=O)(=O)c3ccc(Cl)cc3)cc21`, the IC50 in test [1] came out at 3.47 µM; in test [2] it was 0.27 µM; in test [3], 1.56 µM.
With `Cn1c(=O)n(C)c2cc(NS(=O)(=O)c3ccc4c(c3)CCCO4)ccc21`, the IC50 in test [1] came to 1.6 µM; in test [2] it was 0.27 µM; in test [3], 4.63 µM.
The like results for `COc1ccc(Oc2cc3c(cc2NS(=O)(=O)c2ccccc2C)n(C)c(=O)n3C)cc1` were, in that order, 2.38 µM, 0.68 µM and 1.47 µM.
The like results for `Cc1cc(Cl)ccc1S(=O)(=O)Nc1cc2c(cc1Oc1ccccc1)n(C)c(=O)n2C` were, in that order, 2.39 µM, 1.17 µM and 2.45 µM.
The like results for `Cc1ccc(S(=O)(=O)Nc2ccc3c(c2)n(C)c(=O)n3C)cc1F` were, in that order, 6.14 µM, 0.59 µM and above 10 µM.
`COc1ccc(S(=O)(=O)Nc2cc3c(cc2Oc2ccccc2)n(C)c(=O)n3C)cc1OC`: the figures for the IC50 in test [1], in test [2] and in test [3] were 1.21 µM, 0.29 µM and 0.48 µM, respectively.
The like results for `Cc1ccc(F)cc1S(=O)(=O)Nc1cc2c(cc1Oc1ccccc1)n(C)c(=O)n2C` were, in that order, 2.42 µM, 0.79 µM and 3.42 µM.

The record behind these values is ChEMBL document CHEMBL3769336, “Discovery of a Chemical Tool Inhibitor Targeting the Bromodomains of TRIM24 and BRPF” (J Med Chem, 2016).
